# Measured values reported in patent US10189785B2, “Heterocyclic compound” (TAKEDA PHARMACEUTICAL COMPANY LIMITED, priority 2015, dated 2019).
# How the values were obtained:
# [1] = test system: lung adenocarcinoma cell line HCC4006; experiment: HCC4006 cell growth inhibition test (Test Example 2); format: cell-based; details: Homo sapiens, 120 h; 1 μM test compound; HCC4006 cells, culture for 5 days, CellTiter-Glo; read-out: Rate of inhibition (%) at 1 μM
# In short: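 HCC4006 cells in RPMI-1640 with 10% FBS were seeded at 250 cells/well and dosed with compound the next day. After 5 days, viability was read by CellTiter-Glo luminescence. Percent inhibition was calculated against no-compound control and cell-free blank.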
# [2] = test system: human leukemia cell line PL-21 cancer-bearing mice; experiment: Antitumor test using PL-21 cell (Test Example 3); format: in vivo, mouse
# Method: The compound of the present invention was evaluated for its antitumor effect on human leukemia cell line PL-21 cancer-bearing mice by the following method.
# The human leukemia cell line PL-21 (JCRB) was transplanted to each 6-week-old Icr-scid female mouse (CLEA Japan Inc.) by the subcutaneous injection of 3.0×10^6 cells. The tumor size of successfully engrafted tumor was measured 13 days after the transplantation. The tumor volume was calculated according to the following expression: Tumor volume=Major axis×Minor axis×Minor axis×(½)
# Individuals in which the volume of the engrafted tumor reached 100 to 150 mm^3 were selected and used in the experiment as groups each involving 5 or 6 individuals. A 0.5% methylcellulose suspension of each test compound was orally administered to each mouse using the dose (indicated by single dose), the number of doses and the dosing period shown in Table 5. The tumor sizes at the day before the start of the administration and one day after the completion of the administration were measured and the tumor volume was calculated.
# The rate of tumor growth (T/C (%)) in the test compound administration group compared with a control administration group was calculated according to the following expression: T/C (%)=(Tumor volume after the completion of the administration of the test compound administration group−Tumor volume before the start of the administration of the test compound administration group)/(Tumor volume after the completion of the administration of the control administration group−Tumor volume before the start of the administration of the control administration group)×100
# [3] = biological target: T1, SPT (SPT2-expressing membrane fraction: human SPT1, human SPT2 and human ssSPTa) (Homo sapiens, UniProt O15269+O15270); experiment: SPT enzyme inhibition test (Test Example 1); format: biochemical; details: read-out: Rate of inhibition (%) at 1 μM
# T1 construct: Full-length human SPT1, human SPT2 and human ssSPTa used; made in house; host or cells: FreeStyle 293 cells (pcDNA3.1 vectors, cotransfection); crude membrane fraction used
# T1 sequence (O15269 1-473): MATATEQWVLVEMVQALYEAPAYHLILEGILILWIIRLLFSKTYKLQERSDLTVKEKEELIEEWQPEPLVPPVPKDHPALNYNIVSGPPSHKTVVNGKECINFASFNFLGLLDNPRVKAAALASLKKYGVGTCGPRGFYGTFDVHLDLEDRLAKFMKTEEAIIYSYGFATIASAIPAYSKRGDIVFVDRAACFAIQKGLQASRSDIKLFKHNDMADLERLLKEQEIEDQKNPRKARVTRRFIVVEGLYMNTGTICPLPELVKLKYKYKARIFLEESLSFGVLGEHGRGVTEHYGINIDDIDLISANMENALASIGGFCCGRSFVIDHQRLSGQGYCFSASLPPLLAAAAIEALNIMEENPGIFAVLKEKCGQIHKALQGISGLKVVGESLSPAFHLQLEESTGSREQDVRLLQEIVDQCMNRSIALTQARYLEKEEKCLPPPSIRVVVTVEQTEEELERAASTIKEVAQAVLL
# T1 sequence (O15270 1-562): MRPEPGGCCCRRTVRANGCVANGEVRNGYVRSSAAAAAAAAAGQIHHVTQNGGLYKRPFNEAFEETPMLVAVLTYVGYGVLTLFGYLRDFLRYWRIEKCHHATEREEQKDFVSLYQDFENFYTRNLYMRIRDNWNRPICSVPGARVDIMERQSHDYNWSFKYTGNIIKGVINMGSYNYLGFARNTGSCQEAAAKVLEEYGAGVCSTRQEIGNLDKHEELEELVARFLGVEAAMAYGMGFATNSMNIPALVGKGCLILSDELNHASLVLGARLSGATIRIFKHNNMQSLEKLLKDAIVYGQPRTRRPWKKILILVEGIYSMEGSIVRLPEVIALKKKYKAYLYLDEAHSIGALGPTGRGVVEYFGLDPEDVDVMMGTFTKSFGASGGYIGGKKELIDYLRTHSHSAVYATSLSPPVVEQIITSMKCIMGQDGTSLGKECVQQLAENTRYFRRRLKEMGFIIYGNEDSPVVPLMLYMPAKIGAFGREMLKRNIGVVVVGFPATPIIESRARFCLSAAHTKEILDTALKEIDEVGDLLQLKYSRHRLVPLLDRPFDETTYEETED
# T1 sequence (Q969W0 1-71 partner): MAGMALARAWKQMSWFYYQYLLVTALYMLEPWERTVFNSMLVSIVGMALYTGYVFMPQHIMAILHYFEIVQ
# In short: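 Membrane fraction (100 μg/mL stock) of cells expressing human SPT1, SPT2 and ssSPTa was preincubated 60 min at RT with compound in 100 mM Hepes pH 8.0 containing EDTA, DTT and 0.01% BSA. Reaction ran 15 min at RT with 2 mM L-serine and 20 μM palmitoyl CoA (solution concentrations), then formic acid quench. Product measured by RapidFire mass spectrometry against a C17-sphinganine internal standard, giving % inhibition.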
# [4] = 10 mg/kg orally, administered once every two days, 14 days
# [5] = 30 mg/kg orally, administered once every two days, 14 days
SMILES,inhibition at 1 µM [3] [%],inhibition at 1 µM [1] [%],"T/C (%) ([2]; 10 mg/kg orally, administered every day for 3 days, 4-day drug holiday, 2 cycles)","T/C (%) [2, 4] [%]","T/C (%) [2, 5] [%]"
"Cn1nc(C(F)(F)F)cc1C(=O)N[C@@H]1CCN(C(=O)c2cc(Cl)c3nccnc3c2)C[C@@H]1c1ccccc1 [Example 81B, N-((3S,4R)-1-((8-Chloroquinoxalin-6-yl)carbonyl)-3-phenylpiperidin-4-yl)-1-methyl-3-(trifluoromethyl)-1H-pyrazole-5-carboxamide]",,54,16,63,32
"COc1cc(C(=O)N2CC[C@H](NC(=O)c3ccccc3OC(F)(F)F)c3c2cnn3C(C)C)cnc1OC [Example 162A, N-((7S)-4-((5,6-Dimethoxypyridin-3-yl)carbonyl)-1-isopropyl-4,5,6,7-tetrahydro-1H-pyrazolo[4,3-b]pyridin-7-yl)-2-(trifluoromethoxy)benzamide]",,56,,52,38

# More lines, main results first:
inhibition at 1 µM [3] [%],SMILES,inhibition at 1 µM [1] [%],"T/C (%) ([2]; 10 mg/kg orally, administered every day for 3 days, 4-day drug holiday, 2 cycles)","T/C (%) [2, 4] [%]","T/C (%) [2, 5] [%]"
102,"COc1cc(C(=O)N2CC[C@@H](NC(=O)c3c(C)nn(C)c3Cl)[C@@H](c3ccccc3)C2)cc2nccnc12 [Example 345B, 5-chloro-N-((3S,4R)-1-((8-methoxyquinoxalin-6-yl)carbonyl)-3-phenylpiperidin-4-yl)-1,3-dimethyl-1H-pyrazole-4-carboxamide]",48,,,
102,"COc1cc(C(=O)N2CC[C@@H](NC(=O)c3cc(C(F)(F)F)nn3C)[C@@H](c3ccc(F)cc3)C2)cc2nccnc12 [Example 352B, N-((3S,4R)-3-(4-fluorophenyl)-1-((8-methoxyquinoxalin-6-yl)carbonyl)piperidin-4-yl)-1-methyl-3-(trifluoromethyl)-1H-pyrazole-5-carboxamide]",50,,,
102,"COc1cc(C(=O)N2CC[C@@H](NC(=O)c3ccccc3OC(F)F)[C@H](c3ccc(F)cc3)C2)cnc1OC [Example 361B, 2-(difluoromethoxy)-N-((3R,4R)-1-((5,6-dimethoxypyridin-3-yl)carbonyl)-3-(4-fluorophenyl)piperidin-4-yl)benzamide]",45,,,
102,"COc1cc(C(=O)N2CC[C@@H](NC(=O)c3cc(C(F)(F)F)nn3C)[C@@H](c3ccccc3)C2)cc2nccnc12 [Example 412B, N-((3S,4R)-1-((8-Methoxyquinoxalin-6-yl)carbonyl)-3-phenylpiperidin-4-yl)-1-methyl-3-(trifluoromethyl)-1H-pyrazole-5-carboxamide]",47,,,
